This note sets out measurements from US10730863B2, “Bridged bicyclic compounds as farnesoid X receptor modulators” (BRISTOL-MYERS SQUIBB COMPANY, priority 2017, dated 2020).

The term EC50 denotes the midpoint of the concentration-response curve. A low value points to higher potency in that assay.

Sequence of FXR (Q96RI1 262-486): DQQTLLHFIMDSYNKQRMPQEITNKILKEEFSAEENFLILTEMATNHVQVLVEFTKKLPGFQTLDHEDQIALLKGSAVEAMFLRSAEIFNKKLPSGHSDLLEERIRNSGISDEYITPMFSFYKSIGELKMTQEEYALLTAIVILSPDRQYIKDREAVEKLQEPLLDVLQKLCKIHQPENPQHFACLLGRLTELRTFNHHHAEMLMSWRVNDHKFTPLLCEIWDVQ

The assay addresses FXR (Homo sapiens (Human), UniProt Q96RI1). The experiment in a line: FXR EC50 (FXR agonist activity reported with each example). Type of assay: cell-based.
Turning to `COc1ccc(-c2noc(C34CCC(/C=C/c5c(-c6c(Cl)cncc6Cl)noc5C5CC5)(CC3)CC4)n2)cc1C(=O)O` [Example 437, (E)-5-(5-(4-(2-(5-cyclopropyl-3-(3,5-dichloropyridin-4-yl)isoxazol-4-yl)vinyl)bicyclo[2.2.2]octan-1-yl)-1,2,4-oxadiazol-3-yl)-2-methoxybenzoic acid], the EC50 worked out at 23 nM.

In turn, `COc1cc(C(=O)O)c(OC)c(-c2noc(C34CCC(OCc5c(-c6c(Cl)cncc6Cl)noc5C5CC5)(CC3)CC4)n2)c1` [Example 246, 3-(5-(4-((5-cyclopropyl-3-(3,5-dichloropyridin-4-yl)isoxazol-4-yl)methoxy)bicyclo[2.2.2]octan-1-yl)-1,2,4-oxadiazol-3-yl)-2,5-dimethoxybenzoic acid] had an EC50 of 90 nM.

For `O=C(O)c1cc(F)c2nc(OCC34CCC(C=Cc5c(-c6c(Cl)cccc6Cl)noc5C5CC5)(CC3)CC4)sc2c1` [Example 191], the response was half-maximal at 58 nM (EC50).

On to `CC(C)Oc1cc(C(=O)O)nc2ccc(OCC34CCC(OCc5c(-c6c(Cl)cncc6Cl)noc5C5CC5)(CC3)CC4)cc12` [Example 328, 6-((4-((5-cyclopropyl-3-(3,5-dichloropyridin-4-yl)isoxazol-4-yl)methoxy)bicyclo[2.2.2]octan-1-yl)methoxy)-4-isopropoxyquinoline-2-carboxylic acid], for which the response was half-maximal at 15 nM (EC50).

On to `CC(C)(C(=O)O)c1ccc(C23CCC(/C=C/c4c(-c5c(Cl)cncc5Cl)noc4C4CC4)(CC2)CO3)cc1` [Example 482, (E)-2-(4-(4-(2-(5-cyclopropyl-3-(3,5-dichloropyridin-4-yl)isoxazol-4-yl)vinyl)-2-oxabicyclo[2.2.2]octan-1-yl)phenyl)-2-methylpropanoic acid], for which the EC50 is 950 nM. This EC50 lies about 63-fold higher than the previous one.

On to `O=C(O)c1cc(F)cc(-c2noc(C34CCC(OCc5c(-c6c(Cl)cncc6Cl)noc5C5CC5)(CC3)CC4)n2)c1` [Example 458, 3-(5-(4-((5-cyclopropyl-3-(3,5-dichloropyridin-4-yl)isoxazol-4-yl)methoxy)bicyclo[2.2.2]octan-1-yl)-1,2,4-oxadiazol-3-yl)-5-fluorobenzoic acid], for which it took 85 nM to reach a half-maximal effect (EC50).

For `O=C(O)c1ccc2[nH]c(C34CCC(OCc5c(-c6c(Cl)cccc6Cl)noc5C5CC5)(CC3)CC4)nc2c1` [Example 17, 2-(4-((5-cyclopropyl-3-(2,6-dichlorophenyl)isoxazol-4-yl)methoxy)bicyclo[2.2.2]octan-1-yl)-1H-benzo[d]imidazole-5-carboxylic acid], it took 2700 nM to reach a half-maximal effect (EC50).

`O=C(O)c1ccnc(C#CC23CCC(OCc4c(-c5c(Cl)cccc5Cl)noc4C4CC4)(CC2)CC3)c1` [Example 132, 2-((4-((5-cyclopropyl-3-(2,6-dichlorophenyl)isoxazol-4-yl)methoxy)bicyclo[2.2.2]octan-1-yl)ethynyl)isonicotinic acid] returned an EC50 of 3500 nM.

Take `O=C(O)c1ccc(-c2nc(C34CCC(OCc5c(-c6ccccc6OC(F)(F)F)noc5C5CC5)(CC3)CC4)no2)cc1` [Example 57]: the EC50 was 650 nM.

Compound `O=C(O)c1cccc2nc(C34CCC(COCc5c(-c6c(Cl)cccc6Cl)noc5C5CC5)(CC3)CC4)sc12` [Example 172, 2-(4-(((5-cyclopropyl-3-(2,6-dichlorophenyl)isoxazol-4-yl)methoxy)methyl)bicyclo[2.2.2]octan-1-yl)benzo[d]thiazole-7-carboxylic acid] had an EC50 of 89 nM.

On to `O=C(O)c1cc(C#CC23CCC(OCc4c(-c5c(Cl)cncc5Cl)noc4C4CC4)(CC2)CC3)cc(C(F)(F)F)c1` [Example 366], for which the midpoint of the response, the EC50, lay at 27 nM. This EC50 lies about 3.3-fold lower than the previous one.

`O=C(O)c1cc(OC2CC2)c2cc(OCC34CCC(OCc5c(-c6c(Cl)cncc6Cl)noc5C5CC5)(CC3)CC4)ccc2n1` [Example 331, 4-cyclopropoxy-6-((4-((5-cyclopropyl-3-(3,5-dichloropyridin-4-yl)isoxazol-4-yl)methoxy)bicyclo[2.2.2]octan-1-yl)methoxy)quinoline-2-carboxylic acid] came in with an EC50 of 23 nM.

In turn, `O=C(O)c1cccc(NC(=O)C23CCC(C=Cc4c(-c5c(Cl)cccc5Cl)noc4C4CC4)(CC2)CC3)c1` [Example 188] had an EC50 of 120 nM. Against the preceding compound, the EC50 is about 5.2-fold higher.
